Data: ChEMBL document CHEMBL4270582, “Diterpenoid lead stevioside and its hydrolysis products steviol and isosteviol: Biological activity and structural modification” (Eur J Med Chem, 2018)
pIC50: −log10 of the molar value. In brackets after ≈: the same amount, converted by molar mass.

Columns and labels:
[1] = system: HCT-116; experiment: Antiproliferative activity against human HCT116 cells by MTT assay; format: functional, cell-based
[2] = system: SW-620; experiment: Antiproliferative activity against human SW620 cells by MTT assay; format: functional, cell-based
[3] = system: Huh-7; experiment: Antiproliferative activity against human HuH7 cells by MTT assay; format: functional, cell-based
[4] = system: HepG2; experiment: Antiproliferative activity against human HepG2 cells by MTT assay; format: functional, cell-based
[5] = system: MCF7; experiment: Antiproliferative activity against human MCF7 cells; format: functional, cell-based
[6] = Inhibition of calf thymus DNA polymerase alpha using poly(dA)template/oligo(dT) (12 to 18 residues) primer and dTTP as substrate after 10 mins; design: species or system Bos taurus
[7] = system: MCF7; experiment: Antiproliferative activity against human MCF7 cells after 48 hrs by SRB assay; format: functional, cell-based; details: MCF7, 48 h
[8] = system: Mycobacterium avium; experiment: Antimycobacterial activity against Mycobacterium avium after 10 to 12 days by vertical diffusion method; format: functional
[9] = system: Mycobacterium tuberculosis; experiment: Antimycobacterial activity against Mycobacterium tuberculosis H37Rv after 10 to 12 days by vertical diffusion method; format: functional
[10] = system: Mycolicibacter terrae; experiment: Antimycobacterial activity against Mycobacterium terrae after 10 to 12 days by vertical diffusion method; format: functional
[11] = system: HepG2; experiment: Antiproliferative activity against human HepG2 cells; format: functional, cell-based
[12] = system: Candida albicans; experiment: Antifungal activity against Candida albicans 855-653 by serial dilution method; format: functional
[13] = system: Staphylococcus aureus; experiment: Antibacterial activity against Staphylococcus aureus 209p by serial dilution method; format: functional
[14] = system: HCT-116; experiment: Antiproliferative activity against human HCT116 cells after 72 hrs by MTT assay; format: functional, cell-based; details: HCT-116, 72 h
[15] = system: B16-F10; experiment: Antiproliferative activity against mouse B16F10 cells; format: functional, cell-based
[16] = system: Bacillus subtilis; experiment: Antibacterial activity against Bacillus subtilis CMCC (B) 63501 after 6 hrs by two fold serial dilution method; format: functional; details: CMCC (B) 63501, 6 h
[17] = system: Jejunum; experiment: Downregulation of glucose uptake in Syrian golden hamster jejunum at 1 mM after 60 mins relative to control; format: functional, Mesocricetus auratus
[18] = system: Syrian golden hamster; experiment: Induction of insulin sensitivity in Syrian golden hamster assessed as uplift of glucose uptake in insulin-resistance condition relative to control; format: functional, Mesocricetus auratus
[19] = system: Syrian golden hamster; experiment: Induction of insulin sensitivity in Syrian golden hamster assessed as uplift of glucose uptake in normal condition relative to control; format: functional, Mesocricetus auratus
[20] = system: ASPC1; experiment: Antiproliferative activity against human AsPC1 cells after 48 hrs by MTT assay; format: functional, cell-based; details: ASPC1, 48 h
[21] = system: HCT-116; experiment: Antiproliferative activity against human HCT116 cells after 48 hrs by MTT assay; format: functional, cell-based; details: HCT-116, 48 h
[22] = system: A549; experiment: Antiproliferative activity against human A549 cells after 48 hrs by MTT assay; format: functional, cell-based; details: A549, 48 h
[23] = system: Mycobacterium tuberculosis; experiment: Antimycobacterial activity against Mycobacterium tuberculosis H37Rv after 11 days by serial dilution method; format: functional; details: 264 h
[24] = system: AZ-521 cell line; experiment: Antiproliferative activity against human AZ-521 cells after 48 hrs by MTT assay; format: functional, cell-based; details: AZ-521, 48 h
[25] = system: SK-BR-3; experiment: Antiproliferative activity against human SKBR3 cells after 48 hrs by MTT assay; format: functional, cell-based; details: SK-BR-3, 48 h
[26] = system: HL-60; experiment: Antiproliferative activity against human HL60 cells after 48 hrs by MTT assay; format: functional, cell-based; details: HL-60, 48 h
[27] = system: NCI-H460; experiment: Antiproliferative activity against human H460 cells after 24 hrs by MTT assay; format: functional, cell-based; details: NCI-H460, 24 h
[28] = system: MRC5; experiment: Antiproliferative activity against human MRC5 cells after 24 hrs by MTT assay; format: cell-based; details: MRC5, 24 h
[29] = system: HepG2; experiment: Antiproliferative activity against human HepG2 cells after 24 hrs by MTT assay; format: functional, cell-based; details: HepG2, 24 h
[30] = system: HL-60; experiment: Antiproliferative activity against human HL60 cells after 24 hrs by MTT assay; format: functional, cell-based; details: HL-60, 24 h
[31] = system: Mycobacterium tuberculosis; experiment: Antimycobacterial activity against Mycobacterium tuberculosis H37Rv after 10 to 12 days by double serial dilution method; format: functional
[32] = system: HeLa; experiment: Antiproliferative activity against human HeLa cells after 48 hrs by MTT assay; format: functional, cell-based

## CCOC(=O)[C@]1(C)CCC[C@@]2(C)[C@@H]3CC[C@@]4(C)C[C@]3(CC[C@@H]21)C/C4=N\OC(=O)CCC(=O)OC(C)CCOc1no[n+]([O-])c1S(=O)(=O)c1ccccc1 (stereo partly specified)
[1]
  pIC50: 6.03
[2]
  pIC50: 5.94
[3]
  pIC50: 5.76
[4]
  pIC50: 5.62

## C[C@@]12CC[C@@H]3[C@@](CC[C@H]4[C@@]3(C)CCC[C@@]4(C)C(=O)O)(CC1=O)C2 [ISOSTEVIOL]
[5]
  IC50: 2.18 µg/mL (≈ 6.85 µM)
[6]
  pIC50: 4.19

## C=C1C[C@@]23CC[C@H]4[C@@](C)(CCC[C@@]4(C)C(=O)O)[C@@H]2CC[C@]1(O)C3 [STEVIOL]
[7]
  pIC50: 3.73

## C[C@@]12CC[C@@H]3[C@@](CC[C@H]4[C@@]3(C)CCC[C@@]4(C)C(=O)O[C@@H]3O[C@H](C(=O)NN)[C@@H](O)[C@H](O)[C@H]3O)(C/C1=N\N)C2
[8]
  MIC: 0.7 µg/mL (≈ 1.34 µM)
[9]
  MIC: 0.7 µg/mL (≈ 1.34 µM)
[10]
  MIC: 0.35 µg/mL (≈ 0.67 µM)

## CCCCCCCC(=O)CO[C@]1(C)CCC[C@@]2(C)[C@@H]3CC[C@@]4(C)C[C@]3(CC[C@@H]21)CC4=O
[11]
  pIC50: 5.70

## C[C@@]12CC[C@@H]3[C@@](CC[C@H]4[C@@]3(C)CCC[C@@]4(C)C(=O)OCC[N+](C)(C)Cc3ccccc3)(CC1=O)C2.[Br-]
[12]
  MIC: 31.2 µg/mL
[13]
  MIC: 31.2 µg/mL

## CCOC(=O)[C@]1(C)CCC[C@@]2(C)[C@@H]3CC[C@@]4(C)C[C@]3(CC[C@@H]21)[C@H](Cn1cc(COc2ccccc2C=O)nn1)[C@H]4O
[14]
  pIC50: 5.53

## CCOC(=O)[C@]1(C)CCC[C@@]2(C)[C@@H]3CC[C@@]4(C)C[C@]3(CC[C@@H]21)C/C4=N\OC(=O)CCC(=O)OCCOc1no[n+]([O-])c1S(=O)(=O)c1ccccc1
[1]
  pIC50: 6.32
[2]
  pIC50: 5.52
[3]
  pIC50: 5.54
[4]
  pIC50: 5.53

## C=C1C(=O)[C@@]2(C)CC[C@@H]3[C@]1(CC[C@H]1[C@@]3(C)CCC[C@@]1(C)C(=O)NCC(=O)OCCCOc1no[n+]([O-])c1S(=O)(=O)c1ccccc1)C2
[15]
  pIC50: 7.70

## C=C[C@]12CC[C@H]3[C@@](C)(CCC[C@@]3(C)C(=O)OCC)[C@@H]1CC[C@](C)(/C=N/O)C2
[16]
  MIC: 1.56 µg/mL (≈ 4.15 µM)

## C=C1C[C@@]23CC[C@H]4[C@@](C)(CCC[C@@]4(C)C(=O)O[C@@H]4O[C@H](CO)[C@@H](O)[C@H](O)[C@H]4O)[C@@H]2CC[C@]1(O[C@@H]1O[C@H](CO)[C@@H](O)[C@H](O)[C@H]1O[C@@H]1O[C@H](CO)[C@@H](O)[C@H](O)[C@H]1O)C3 [STEVIOSIDE]
[17]
  Activity: 43%
[18]
  fold change (FC): 4.4
[19]
  fold change (FC): 2.1

## C[C@@]12CC[C@@H]3[C@@](CC[C@H]4[C@@]3(C)CCC[C@@]4(C)C(=O)OCc3cn(CCCc4ccccc4)nn3)(CC1=O)C2
[20]
  pIC50: 5.32
[21]
  pIC50: 5.18
[22]
  pIC50: 5.00

## CCN(CC)CCNC(=O)c1c(C)[nH]c(/C=C2\C(=O)Nc3ccc(F)cc32)c1C [SUNITINIB]
[4]
  pIC50: 5.11

## C[C@@]12CC[C@@H]3[C@@](CC[C@H]4[C@@]3(C)CCC[C@@]4(C)C(=O)NNC(=O)CCCCC(=O)NNC(=O)[C@]3(C)CCC[C@H]4[C@@H]5CC[C@@]6(C)C[C@]5(CC[C@@H]43)CC6=O)(CC1=O)C2
[23]
  MIC: 5 µg/mL (≈ 6.57 µM)

## COP(=O)(OC)C(C)(C)C/C(C)=N/N=C1\C[C@]23CC[C@H]4[C@@](C)(CCC[C@@]4(C)C(=O)N/N=C(\C)CC(C)(C)P(=O)(OC)OC)[C@@H]2CC[C@@]1(C)C3
[23]
  MIC: 5 µg/mL (≈ 6.88 µM)

## C=C1C[C@@]23CC[C@H]4[C@@H](CCC[C@@]4(C)COC(=O)/C=C/C(F)(F)F)[C@@H]2CC[C@]1(O)C3
[24]
  pIC50: 5.77
[22]
  pIC50: 5.39
[25]
  pIC50: 5.92
[26]
  pIC50: 5.54

## C=C1C[C@@]23CC[C@H]4[C@@](C)(CCC[C@@]4(C)C(=O)NCCNC(=O)[C@]4(C)CCC[C@@]5(C)[C@@H]6CC[C@]7(O)C[C@@]6(CC[C@@H]54)CC7=C)[C@@H]2CC[C@]1(O)C3
[27]
  pIC50: 4.97
[28]
  pIC50: 4.77
[29]
  pIC50: 4.75
[30]
  pIC50: 5.37

## C[C@@]12CC[C@@H]3[C@@](CC[C@H]4[C@@]3(C)CCC[C@@]4(C)C(=O)NCCNC(=O)[C@]3(C)CCC[C@@]4(C)[C@@H]5CC[C@@]6(C)C[C@]5(CC[C@@H]43)CC6=O)(CC1=O)C2
[27]
  pIC50: 4.85
[28]
  pIC50: 4.65
[29]
  pIC50: 4.76
[30]
  pIC50: 5.32

## C[C@@]12CC[C@@H]3[C@@](CC[C@H]4[C@@]3(C)CCC[C@@]4(C)C(=O)O)(C[C@H]1CC(=O)CCCCCCCCC(=O)C[C@@H]1C[C@]34CC[C@H]5[C@@H](CCC[C@H]5C(=O)O)[C@@H]3CC[C@@]1(C)C4)C2
[31]
  MIC: 12.5 µg/mL (≈ 16.1 µM)

## COC(=O)[C@]1(C)CCC[C@@]2(C)[C@@H]3CC[C@@]4(C)C[C@]3(CC[C@@H]21)C/C4=N\NC(=O)c1cccnc1
[23]
  MIC: 10 µg/mL (≈ 22.1 µM)

## C[C@@]12CC[C@@H]3[C@@](CC[C@H]4[C@@]3(C)CCC[C@@]4(C)C(=O)OCc3cn(-c4ccccc4)nn3)(CC1=O)C2
[32]
  pIC50: 5.23

## NNC(=O)c1ccncc1 [ISONIAZID]
[23]
  MIC: 0.5 µg/mL (≈ 3.65 µM)

## COC(=O)[C@]1(C)CCC[C@@]2(C)[C@@H]3CC[C@@]4(C)C[C@]3(CC[C@@H]21)C/C4=N\NC(=O)c1ccccn1
[23]
  MIC: 10 µg/mL (≈ 22.1 µM)
